Biological target: T1, met (HGF receptor) in human gastric cancer cells MKN45 (Homo sapiens, UniProt P08581)
T1 construct: endogenous in cells; host or cells: MKN45 human gastric cancer cells
Test: Inhibitory activity against met-autophosphorylation using ELISA method (2), MKN45 cells, HGF-independent
Format: cell-based
Experimental: Cells were cultured with RPMI medium containing 0.1% fetal calf serum in 96-well flat-bottom plate in an amount of 3×10^4 per well, and were incubated at 37° C. overnight. The medium was then replaced by a fresh RPMI medium containing 0.1% fetal calf serum. A solution of the test compound in dimethyl sulfoxide was added to each well, and the incuvation was continued at 37° C. for additional one hr. The medium was removed, the cells were washed with phosphate buffered saline (pH 7.4), and 50 μl of a lysis buffer (20 mM HEPES (pH 7.4), 150 mM NaCl, 0.2% Triton X-100, 10% glycerol, 5 mM sodium orthovanadylate, 5 mM disodium ethylenediaminetetraacetate, and 2 mM Na4P2O7) was then added thereto. The mixture was shaken at 4° C. for 2 hr to prepare a cell extract.
Separately, phosphate buffered saline (50 μl, pH 7.4) containing 5 μg/ml of anti-phospho-tyrosine antibody (PY20; purchased from Transduction Laboratories) was added to a microplate for ELISA (Maxisorp; purchased from NUNC), followed by gentle agitation at 4° C. overnight to coat the surface of the wells with the antibody. After washing of the plate, 300 μl of a blocking solution was added, followed by gentle agitation at room temperature for 2 hr to perform blocking. After washing, the whole quantity of the cell extract was transferred to the wells, and the plate was then allowed to stand at 4° C. overnight. After washing, an anti-HGF receptor antibody (h-Met (C-12), purchased from Santa Cruz Biotechnology) was allowed to react at room temperature for one hr, and, after washing, a peroxidase-labeled anti-rabbit Ig antibody (purchased from Amersham) was allowed to react at room temperature for one hr. After washing, a chromophoric substrate for peroxidase (purchased from Sumitomo Bakelite Co., Ltd.) was added thereto to initiate a reaction. After a suitable level of color development, a reaction termination solution was added to stop the reaction, and the absorbance at 450 nm was measured with a microplate reader.

T1 sequence (P08581 25-1390): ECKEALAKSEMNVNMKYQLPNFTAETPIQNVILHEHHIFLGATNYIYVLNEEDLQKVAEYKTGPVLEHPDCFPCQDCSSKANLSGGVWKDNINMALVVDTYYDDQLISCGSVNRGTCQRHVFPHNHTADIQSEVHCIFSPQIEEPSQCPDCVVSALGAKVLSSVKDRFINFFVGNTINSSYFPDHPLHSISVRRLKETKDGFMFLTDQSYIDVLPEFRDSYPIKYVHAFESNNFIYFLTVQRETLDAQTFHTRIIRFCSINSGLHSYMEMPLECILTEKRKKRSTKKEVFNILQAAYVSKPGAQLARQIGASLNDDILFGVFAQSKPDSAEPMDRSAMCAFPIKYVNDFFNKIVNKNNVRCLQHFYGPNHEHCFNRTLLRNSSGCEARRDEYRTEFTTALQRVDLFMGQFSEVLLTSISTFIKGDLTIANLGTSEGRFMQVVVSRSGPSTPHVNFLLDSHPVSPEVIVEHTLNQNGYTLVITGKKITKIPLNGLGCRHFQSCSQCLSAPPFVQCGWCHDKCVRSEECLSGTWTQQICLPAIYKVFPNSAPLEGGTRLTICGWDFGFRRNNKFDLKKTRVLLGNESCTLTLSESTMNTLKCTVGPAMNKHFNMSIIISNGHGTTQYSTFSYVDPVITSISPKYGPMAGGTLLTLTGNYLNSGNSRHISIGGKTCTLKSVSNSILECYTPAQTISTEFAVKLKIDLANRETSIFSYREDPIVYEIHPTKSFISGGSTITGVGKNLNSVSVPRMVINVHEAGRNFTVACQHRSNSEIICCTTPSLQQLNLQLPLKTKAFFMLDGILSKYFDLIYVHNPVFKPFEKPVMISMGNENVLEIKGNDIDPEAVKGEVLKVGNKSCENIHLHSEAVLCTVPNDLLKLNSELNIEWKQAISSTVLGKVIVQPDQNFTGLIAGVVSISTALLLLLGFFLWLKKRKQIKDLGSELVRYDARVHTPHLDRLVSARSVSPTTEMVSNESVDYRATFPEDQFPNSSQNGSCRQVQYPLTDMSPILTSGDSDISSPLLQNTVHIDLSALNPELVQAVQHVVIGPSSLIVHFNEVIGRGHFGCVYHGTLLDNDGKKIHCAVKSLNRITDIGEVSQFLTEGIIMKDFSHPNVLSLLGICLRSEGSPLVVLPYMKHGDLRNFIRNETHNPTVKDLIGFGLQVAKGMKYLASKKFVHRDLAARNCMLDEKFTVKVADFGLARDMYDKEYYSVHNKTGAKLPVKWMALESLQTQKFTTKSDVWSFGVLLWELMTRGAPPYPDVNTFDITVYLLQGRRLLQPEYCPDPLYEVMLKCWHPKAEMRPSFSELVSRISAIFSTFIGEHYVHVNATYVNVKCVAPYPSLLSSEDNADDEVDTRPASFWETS

Structure (SMILES)	IC50 [µM]
COc1cc2nccc(Oc3ccc(NC(=O)NC(=O)Cc4ccccc4F)c(F)c3)c2cc1OC [Example 26, 1-[4-(6,7-dimethoxyquinolin-4-yloxy)-2-fluoro-phenyl]-3-[2-(2-fluorophenyl)acetyl]urea]	0.126
COc1cc2nccc(Oc3ccc(NC(=O)NC(=O)Nc4ccc(Cl)cn4)cc3)c2cc1OC [Example 231, N-(5-chloro-2-pyridyl)-({[4-(6,7-dimethoxy-quinolin-4-yloxy)anilino]carbonyl}amino)methanamide]	0.329
COc1ccccc1CC(=O)NC(=S)Nc1ccc(Oc2ccnc3cc(OC)c(OC)cc23)cc1F [Example 169, 1-[4-(6,7-dimethoxyquinolin-4-yloxy)-2-fluorophenyl]-3-[2-(2-methoxyphenyl)acetyl]thiourea]	0.276
COc1cc2nccc(Oc3cc(C)c(NC(=S)NC(=O)Cc4ccccc4)cc3C)c2cc1OC [Example 163, 1-[4-(6,7-dimethoxyquinolin-4-yloxy)-2,5-dimethylphenyl]-3-phenylacetylthiourea]	0.202
COc1cc2nccc(Oc3ccc(NC(=S)NC(=O)Cc4ccc(C)cc4)cc3Cl)c2cc1OC [Example 82, 1-[3-chloro-4-(6,7-dimethoxyquinolin-4-yloxy)-phenyl]-3-(2-p-tolylacetyl)thiourea]	0.0743
COc1cc2nccc(Oc3ccc(NC(=O)NC(=O)Nc4ccccc4Oc4ccccc4)cc3)c2cc1OC [Example 255, N-(2-phenoxyphenyl)-({[4-(6,7-dimethoxy-quinolin-4-yloxy)anilino]carbonyl}amino)methanamide]	0.26
CCOCCC(=O)NC(=S)Nc1ccc(Oc2ccnc3cc(OC)c(OC)cc23)c(Cl)c1 [Example 159, 1-[3-chloro-4-(6,7-dimethoxyquinolin-4-yloxy)phenyl]-3-(3-ethoxypropionyl)thiourea]	0.585
COc1cc2nccc(Oc3ccc(NC(=O)NC(=O)CSC4CCCCC4)cc3F)c2cc1OC [Example 115, 1-(2-cyclohexylsulfanylacetyl)-3-[4-(6,7-dimethoxyquinolin-4-yloxy)-3-fluorophenyl]urea]	0.359
COc1cc2nccc(Oc3ccc(NC(=S)NC(=O)CC4C5CCC4CC5)c(F)c3)c2cc1OC (stereo not shown) [Example 89]	0.0526
COc1cc2nccc(Oc3ccc(NC(=O)NC(=O)CSC4CCCCC4)cc3)c2cc1OC [Example 113, 1-(2-cyclohexylsulfanylacetyl)-3-[4-(6,7-dimethoxyquinolin-4-yloxy)phenyl]urea]	0.653
COc1cc2nccc(Oc3ccc(NC(=O)CC(=O)Nc4cccnc4)cc3)c2cc1OC [Example 227, N-[4-(6,7-dimethoxyquinolin-4-yloxy)phenyl]-N′-pyridin-3-ylmalonamide]	4.36
COc1cc2nccc(Oc3ccc(NC(=O)NC(=O)Cc4cccs4)cc3Cl)c2cc1OC [Example 32, 1-[3-chloro-4-(6,7-dimethoxyquinolin-4-yloxy)-phenyl]-3-(2-thiophen-2-ylacetyl)urea]	0.171
COc1cc2nccc(Oc3ccc(NC(=O)NC(=O)CSC4CCCCC4)c(F)c3)c2cc1OC [Example 114, 1-(2-cyclohexylsulfanylacetyl)-3-[4-(6,7-dimethoxyquinolin-4-yloxy)-2-fluorophenyl]urea]	0.485
COc1cc(Oc2ccnc3cc(OC)c(OC)cc23)ccc1NC(=O)NC(=O)Cc1ccc(F)cc1 [Example 38, 1-[4-(6,7-dimethoxyquinolin-4-yloxy)-2-methoxyphenyl]-3-[2-(4-fluorophenyl)acetyl]urea]	0.0291
COc1cc2nccc(Oc3ccc(NC(=O)CC(=O)NC(C)c4ccccc4)cc3)c2cc1OC (stereo not shown) [Example 214, N-[4-(6,7-dimethoxyquinolin-4-yloxy)phenyl]-N′-(1-phenylethyl)malonamide]	2.53
COc1cc2c(Oc3ccc(NC(=S)NC(=O)Cc4cccc(F)c4)cc3F)ccnc2cc1OCCCN1CCOCC1 [Example 289]	0.0238
COc1cc2nccc(Oc3ccc(NC(=S)NC(=O)CC4CCCCC4)cc3)c2cc1OC [Example 61, 1-(2-cyclohexylacetyl)-3-[4-(6,7-dimethoxy-quinolin-4-yloxy)phenyl]thiourea]	0.113
COc1cc2nccc(Oc3ccc(NC(=S)NC(=O)Cc4ccccc4F)cc3)c2cc1OC [Example 151, 1-[4-(6,7-dimethoxyquinolin-4-yloxy)phenyl]-3-[2-(2-fluorophenyl)acetyl]thiourea]	0.256
COc1cccc(C(=O)NC(=S)Nc2ccc(Oc3ccnc4cc(OC)c(OC)cc34)c(F)c2)c1 [Example 144, 1-[4-(6,7-dimethoxyquinolin-4-yloxy)-3-fluorophenyl]-3-(3-methoxybenzoyl)thiourea]	0.699
COc1cc2nccc(Oc3ccc(NC(=O)NC(=O)CN(C)C(C)C)cc3Cl)c2cc1OC [Example 112, 1-[3-chloro-4-(6,7-dimethoxyquinolin-4-yloxy)phenyl]-3-[2-(isopropylmethylamino)acetyl]urea]	1.73
COc1cc2nccc(Oc3ccc(NC(=O)NC(=O)Cc4ccc(F)cc4F)c(F)c3)c2cc1OC [Example 33, 1-[2-(2,4-difluorophenyl)acetyl]-3-[4-(6,7-dimethoxyquinolin-4-yloxy)-2-fluorophenyl]urea]	0.0618
COc1cc2nccc(Oc3ccc(NC(=S)NC(=O)Cc4ccc(F)cc4F)cc3F)c2cc1OC [Example 94, 1-[2-(2,4-difluorophenyl)acetyl]-3-[4-(6,7-dimethoxyquinolin-4-yloxy)-3-fluorophenyl]thiourea]	0.0307
COc1cc2c(Oc3ccc(NC(=S)NC(=O)Cc4cccc(F)c4)cc3F)ccnc2cc1OCC(O)CN1CCCCC1 (stereo not shown) [Example 324, 1-{3-Fluoro-4-[7-(2-hydroxy-3-piperidin-1-yl-propoxy)-6-methoxy-quinolin-4-yloxy]-phenyl}-3-[2-(3-fluoro-phenyl)-acetyl]-thiourea]	0.0234
COc1cc2nccc(Oc3ccc(NC(=O)NC(=O)Nc4c(C)cccc4C)cc3)c2cc1OC [Example 258, N-(2,6-dimethylphenyl)-({[4-(6,7-dimethoxy-quinolin-4-yloxy)anilino]carbonyl}amino)methanamide]	0.357
CCN(CC)CCCOc1cc2nccc(Oc3ccc(NC(=O)NC(=O)Cc4ccccc4F)cc3F)c2cc1OC [Example 293, 1-{4-[7-(3-Diethylamino-propoxy)-6-methoxy-quinolin-4-yloxy]-3-fluoro-phenyl}-3-[2-(2-fluoro-phenyl)-acetyl]-urea]	0.0211
COc1cc2c(Oc3ccc(NC(=S)NC(=O)Cc4cccc(Cl)c4)cc3F)ccnc2cc1OCC(O)CN1CCCCC1 (stereo not shown) [Example 321, 1-[2-(3-Chloro-phenyl)-acetyl]-3-{3-fluoro-4-[7-(2-hydroxy-3-piperidin-1-yl-propoxy)-6-methoxy-quinolin-4-yloxy]-phenyl}-thiourea]	0.125
COc1cc2nccc(Oc3ccc(NC(=O)CC(=O)NCCC(C)(C)C)cc3)c2cc1OC [Example 221, N-[4-(6,7-dimethoxyquinolin-4-yloxy)phenyl]-N′-(3,3-dimethyl-butyl)malonamide]	0.221
COc1cc2c(Oc3ccc(NC(=S)NC(=O)Cc4cccc(F)c4)cc3F)ccnc2cc1OCC(O)CN1CCCC1 (stereo not shown) [Example 325, 1-{3-Fluoro-4-[7-(2-hydroxy-3-pyrrolidin-1-yl-propoxy)-6-methoxy-quinolin-4-yloxy]-phenyl}-3-[2-(3-fluoro-phenyl)-acetyl]-thiourea]	0.0185
